This assay concerns the target T1, human mPGES-1 (Homo sapiens, UniProt O14684).
T1 construct: made in house; host or cells: COS-1 cells (transient transfection; microsomal fraction used as enzyme)
T1 sequence (O14684 1-152): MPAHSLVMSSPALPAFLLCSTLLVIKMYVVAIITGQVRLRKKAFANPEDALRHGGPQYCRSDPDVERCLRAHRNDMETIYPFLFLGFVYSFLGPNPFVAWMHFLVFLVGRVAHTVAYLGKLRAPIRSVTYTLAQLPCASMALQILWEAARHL
The assay is described as follows: Test for mPGES-1 inhibitory activity (microsomal enzyme, PGE2 EIA). It counts as biochemical. To be noted: 4° C., 4 minutes, read-out: h mPGES1 IC50. The method, boiled down:
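IC50 values were derived from EIA-quantified PGE2 after a 4 min, 4 °C reaction with PGH2 at 1 μM final, stopped with ferric chloride/citric acid. Beforehand, compound (2% DMSO final) sat 15 min at 4 °C with human mPGES-1 microsomes from transiently transfected COS-1 cells. Buffer was sodium phosphate pH 7.2 containing 2.5 mM reduced glutathione and 1 mM EDTA.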

Where [1] appears, read: microsomes of COS-1 cells transfected with human mPGES-1 cDNA, PGH2 1 μM, PGE2 by EIA.
[2] abbreviates: microsomes from COS-1 cells transfected with human mPGES-1 cDNA, substrate PGH2 1 μM, PGE2 measured by EIA.

pIC50: −log10 of the molar value. Where two headings read alike, the source gives them in different places.

Turning to `O=c1cc(C(F)F)nc(-c2c(C(F)(F)F)ccc(CNC(=O)[C@H]3C[C@H](OCc4ccccc4C(F)(F)F)C3)c2F)[nH]1` [Example 164, trans-N-{3-[4-(difluoromethyl)-6-oxo-1,6-dihydropyrimidin-2-yl]-2-fluoro-4-(trifluoromethyl)benzyl}-3-{[2-(trifluoromethyl)benzyl]oxy}cyclobutane-1-carboxamide], the negative-log IC50 (pIC50) (usually the negative decadic logarithm of the IC50, by convention in mol/L) under setting [1] was > 9.00.
`O=c1cc(C(F)(F)F)nc(-c2c(C(F)(F)F)ccc(CNC(=O)[C@H]3CC[C@H](OCc4cc(F)cc(Cl)c4)CC3)c2F)[nH]1` [Example 119, trans-4-[(3-chloro-5-fluorobenzyl)oxy]-N-{2-fluoro-3-[6-oxo-4-(trifluoromethyl)-1,6-dihydropyrimidin-2-yl]-4-(trifluoromethyl)benzyl}cyclohexane-1-carboxamide]: under setting [2], the pIC50 was > 9.00.
On the same count and under the same terms, the value for `O=C(NCc1ccc(Cl)c(-c2nc(C(F)(F)F)cc(=O)[nH]2)c1F)C1CCN(c2ccc(C(F)(F)F)cn2)CC1` [Example 32, N-{4-chloro-2-fluoro-3-[6-oxo-4-(trifluoromethyl)-1,6-dihydropyrimidin-2-yl]benzyl}-1-[5-(trifluoromethyl)pyridin-2-yl]piperidine-4-carboxamide] was > 9.00.
Same read-out and setting: the value for `Cc1cccc2ccc(N3CCC(C(=O)NCc4ccc(Cl)c(-c5nc(C(F)(F)F)cc(=O)[nH]5)c4F)CC3)nc12` [Example 31, N-{4-chloro-2-fluoro-3-[6-oxo-4-(trifluoromethyl)-1,6-dihydropyrimidin-2-yl]benzyl}-1-(8-methylquinolin-2-yl)piperidine-4-carboxamide] was > 9.00.
`O=c1cc(C(F)(F)F)nc(-c2c(C(F)(F)F)ccc(CNS(=O)(=O)c3ccccc3C(F)(F)F)c2F)[nH]1` [Example 272, N-{2-fluoro-3-[6-oxo-4-(trifluoromethyl)-1,6-dihydropyrimidin-2-yl]-4-(trifluoromethyl)benzyl}-2-(trifluoromethyl)benzenesulfonamide]: under setting [1], the pIC50 is 7.48.
In the case of `O=c1cc(C(F)(F)F)nc(-c2c(C(F)(F)F)ccc(CNC(=O)[C@H]3C[C@H](OCc4ccc(F)cc4Cl)C3)c2F)[nH]1` [Example 154, trans-3-[(2-chloro-4-fluorobenzyl)oxy]-N-{2-fluoro-3-[6-oxo-4-(trifluoromethyl)-1,6-dihydropyrimidin-2-yl]-4-(trifluoromethyl)benzyl}cyclobutane-1-carboxamide], the negative logarithm of the IC50 (pIC50) under setting [1] was > 9.00.
Turning to `O=c1cc(C(F)(F)F)nc(-c2c(C(F)(F)F)ccc(CNC(=O)[C@H]3CC[C@H](OCc4ccc(F)cc4F)CC3)c2F)[nH]1` [Example 114, trans-4-[(2,4-difluorobenzyl)oxy]-N-{2-fluoro-3-[6-oxo-4-(trifluoromethyl)-1,6-dihydropyrimidin-2-yl]-4-(trifluoromethyl)benzyl}cyclohexane-1-carboxamide], the negative-log IC50 (pIC50) under setting [2] is 8.28.
Same read-out and setting: the value for `Cc1cc(=O)[nH]c(-c2c(C(F)(F)F)ccc(CNC(=O)[C@H]3CC[C@H](OCc4ccc(Cl)cc4)CC3)c2F)n1` [Example 105, trans-4-[(4-chlorobenzyl)oxy]-N-[2-fluoro-3-(4-methyl-6-oxo-1,6-dihydropyrimidin-2-yl)-4-(trifluoromethyl)benzyl]cyclohexane-1-carboxamide] was 7.64.
As to `Cc1nc(-c2c(C(F)(F)F)ccc(CNC(=O)[C@H]3CC[C@H](OCc4ccc(F)cc4F)CC3)c2F)[nH]c(=O)c1F` [Example 126, trans-4-[(2,4-difluorobenzyl)oxy]-N-[2-fluoro-3-(5-fluoro-4-methyl-6-oxo-1,6-dihydropyrimidin-2-yl)-4-(trifluoromethyl)benzyl]cyclohexane-1-carboxamide], under setting [2], the pIC50 was > 9.00.
For `O=C(NCc1ccc(C(F)(F)F)c(-c2nc(C(F)F)cc(=O)[nH]2)c1F)C1CCN(c2ccc(Cl)c(Cl)c2)CC1` [Example 84, 1-(3,4-dichlorophenyl)-N-{3-[4-(difluoromethyl)-6-oxo-1,6-dihydropyrimidin-2-yl]-2-fluoro-4-(trifluoromethyl)benzyl}piperidine-4-carboxamide], the negative-log IC50 (pIC50) under setting [2] was 8.28.
For `O=c1cc(C(F)(F)F)nc(-c2c(C(F)(F)F)ccc(CNC(=O)[C@H]3C[C@H](OCc4ccccc4)C3)c2F)[nH]1` [Example 134, trans-3-(benzyloxy)-N-{2-fluoro-3-[6-oxo-4-(trifluoromethyl)-1,6-dihydropyrimidin-2-yl]-4-(trifluoromethyl)benzyl}cyclobutane-1-carboxamide], the negative logarithm of the IC50 (pIC50) under setting [2] was > 8.00.
For `Cc1nc(-c2c(C(F)(F)F)ccc(CNC(=O)[C@H]3C[C@H](OCc4ccc(F)cc4Cl)C3)c2F)[nH]c(=O)c1F` [Example 224, trans-3-[(2-chloro-4-fluorobenzyl)oxy]-N-[2-fluoro-3-(5-fluoro-4-methyl-6-oxo-1,6-dihydropyrimidin-2-yl)-4-(trifluoromethyl)benzyl]cyclobutane-1-carboxamide], the negative-log IC50 (pIC50) under setting [1] is > 9.00.
`O=C(NCc1ccc(C(F)(F)F)c(-c2nc(C(F)F)cc(=O)[nH]2)c1F)C1CCN(c2ncc(Cl)cc2Cl)CC1` [Example 45, 1-(3,5-dichloropyridin-2-yl)-N-{3-[4-(difluoromethyl)-6-oxo-1,6-dihydropyrimidin-2-yl]-2-fluoro-4-(trifluoromethyl)benzyl}piperidine-4-carboxamide]: under setting [2], the negative logarithm of the IC50 (pIC50) is 7.82.
On the same count and under the same terms, the value for `O=C(NCc1ccc(C(F)(F)F)c(-c2nc(C(F)(F)F)cc(=O)[nH]2)c1F)C1CCN(c2cccc(C(F)(F)F)c2)CC1` [Example 67, N-{2-fluoro-3-[6-oxo-4-(trifluoromethyl)-1,6-dihydropyrimidin-2-yl]-4-(trifluoromethyl)benzyl}-1-[3-(trifluoromethyl)phenyl]piperidine-4-carboxamide] was > 9.00; that for `Cc1nc(-c2c(C(F)(F)F)ccc(CNC(=O)C3CCN(c4ccc(C(F)(F)F)cn4)CC3)c2F)[nH]c(=O)c1F` [Example 33, N-[2-fluoro-3-(5-fluoro-4-methyl-6-oxo-1,6-dihydropyrimidin-2-yl)-4-(trifluoromethyl)benzyl]-1-[5-(trifluoromethyl)pyridin-2-yl]piperidine-4-carboxamide] was 7.85.
In the case of `O=c1cc(C(F)F)nc(-c2c(C(F)(F)F)ccc(CNC(=O)[C@H]3C[C@H](OCc4cccc(F)c4)C3)c2F)[nH]1` [Example 171, trans-N-{3-[4-(difluoromethyl)-6-oxo-1,6-dihydropyrimidin-2-yl]-2-fluoro-4-(trifluoromethyl)benzyl}-3-[(3-fluorobenzyl)oxy]cyclobutane-1-carboxamide], under setting [1], the negative-log IC50 (pIC50) was > 9.00.
The same measure, in the same setting: the value for `O=C(Cc1ccc(C(F)(F)F)cc1)NCc1ccc(C(F)(F)F)c(-c2nc(C(F)(F)F)cc(=O)[nH]2)c1F` [Example 283, N-{2-fluoro-3-[6-oxo-4-(trifluoromethyl)-1,6-dihydropyrimidin-2-yl]-4-(trifluoromethyl)benzyl}-2-[4-(trifluoromethyl)phenyl]acetamide] was 8.82.
`Cc1cc(=O)[nH]c(-c2c(C(F)(F)F)ccc(CNC(=O)C3CCN(c4ccc5cccc(C)c5n4)CC3)c2F)n1` [Example 9, N-[2-fluoro-3-(4-methyl-6-oxo-1,6-dihydropyrimidin-2-yl)-4-(trifluoromethyl)benzyl]-1-(8-methylquinolin-2-yl)piperidine-4-carboxamide]: under setting [2], the negative logarithm of the IC50 (pIC50) is > 8.00.
Consider `CCc1nc(-c2c(C(F)(F)F)ccc(CNC(=O)[C@H]3CC[C@H](OCc4ccc(F)cc4F)CC3)c2F)[nH]c(=O)c1F` [Example 132, trans-4-[(2,4-difluorobenzyl)oxy]-N-[3-(4-ethyl-5-fluoro-6-oxo-1,6-dihydropyrimidin-2-yl)-2-fluoro-4-(trifluoromethyl)benzyl]cyclohexane-1-carboxamide], for which the negative-log IC50 (pIC50) under setting [2] was 7.68.
In the case of `Cc1cc(=O)[nH]c(-c2c(C(F)(F)F)ccc(CNC(=O)[C@H]3C[C@H](OCc4ccc(F)c(Cl)c4)C3)c2F)n1` [Example 193, trans-3-[(3-chloro-4-fluorobenzyl)oxy]-N-[2-fluoro-3-(4-methyl-6-oxo-1,6-dihydropyrimidin-2-yl)-4-(trifluoromethyl)benzyl]cyclobutane-1-carboxamide], the pIC50 under setting [1] is > 9.00.
The same measure, in the same setting: the value for `CCc1cc(=O)[nH]c(-c2c(C(F)(F)F)ccc(CNC(=O)[C@H]3C[C@H](OCc4cccc(F)c4)C3)c2F)n1` [Example 205, trans-N-[3-(4-ethyl-6-oxo-1,6-dihydropyrimidin-2-yl)-2-fluoro-4-(trifluoromethyl)benzyl]-3-[(3-fluorobenzyl)oxy]cyclobutane-1-carboxamide] was 7.85.
The same measure, in the same setting: the value for `O=c1cc(C(F)F)nc(-c2c(C(F)(F)F)ccc(CNC(=O)[C@H]3C[C@H](OCc4cc(F)cc(F)c4)C3)c2F)[nH]1` [Example 170, trans-3-[(3,5-difluorobenzyl)oxy]-N-{3-[4-(difluoromethyl)-6-oxo-1,6-dihydropyrimidin-2-yl]-2-fluoro-4-(trifluoromethyl)benzyl}cyclobutane-1-carboxamide] was 8.89.
In the case of `O=c1cc(C(F)(F)F)nc(-c2c(C(F)(F)F)ccc(CNC(=O)[C@H]3C[C@H](OCc4ccccc4C(F)(F)F)C3)c2F)[nH]1` [Example 142, trans-N-{2-fluoro-3-[6-oxo-4-(trifluoromethyl)-1,6-dihydropyrimidin-2-yl]-4-(trifluoromethyl)benzyl}-3-{[2-(trifluoromethyl)benzyl]oxy}cyclobutane-1-carboxamide], under setting [2], the pIC50 is > 9.00.

The values are drawn from patent US20250340557A1, “PYRIMIDINE DERIVATIVE” (ASKA PHARMACEUTICAL CO., LTD., priority 2022, published 2025).
